# Entries after “also recorded” stand apart in the source; their conditions may differ. Where a SMILES comes first, the peptide text is derived from it. [ ]: non-standard residue; d: D form. The star is where a group is joined. Hexanoyl = CCCCCC(=O)*; Ahx = NCCCCCC(=O)O
# How the values were obtained:
# [1] = Brain distribution of 3H-Dihexa after carotid infusion; assay type: in vivo, rat
# Description: FIG. 44. […] Rats fitted with a carotid cannula were anesthetized and infused with 0.5 ml of isotonic saline containing 10 μCi of 3H-Dihexa and 2 μCi ^14C-Inulin, a vascular marker. Thirty minutes after infusion rats were decapitated, the brains removed, and various brain regions dissected. The tissues were then weighed and solubilized with NCS and 10 ml of scintillation was added. Samples were counted with a scintillation counter using two different windows to quantitate both ^3H and ^14C counts. ^3H/^14Cs were determined so that blood derived Dihexa contamination of tissues could be determined. The average ^3H/^14C from blood was 1687.
# [2] = test system: c-Met; assay: Augmentation of HGF-dependent c-Met phosphorylation in HEK293 cells; assay type: cell-based, human; conditions: HEK 293 cells treated with HGF+/−Dihexa
# Description: augmentation of HGF-dependent c-Met phosphorylation in HEK293 cells, or 2) augmentation of HGF-dependent cell scattering in MDCK cells. All the compounds in Family one were tested using the c-Met phosphorylation assay. […]
# Human embryonic kidney cells 293 (HEK293), Madin Darby canine kidney cells (MDCK), and B16F10 murine melanoma cells were grown in DMEM, 10% fetal bovine serum (FBS). Cells were grown to 90-100% confluency before use. For most but not all studies HEK and MDCK cells were serum starved for 24 hours prior to the initiation of drug treatment.
# HEK293 cells were seeded in 6 well tissue culture plates and grown to 95% confluency in DMEM containing 10% FBS. The cells were serum deprived for 24 hours prior to the treatment to reduce the basal levels of phospho-Met. […] The lysate was clarified by centrifugation at 15,000 g for 15 minutes, protein concentrations were determined using the BCA total protein assay, and then appropriate volumes of the lysates were diluted with 2× reducing Laemmli buffer and heated for ten minutes at 95° C. […] Proteins were visualized using the Supersignal West Pico Chemiluminescent Substrate system (Pierce, Fenton, Mo.) and molecular weights determined by comparison to protein ladders (BenchMark, Invitrogen; and Kaleidoscope, BioRad). Images were digitized and analyzed using a UVP phosphoimager.
# [3] = Metabolic stability in rat serum; assay type: in vitro ADME
# [4] = test system: Dissociated hippocampal neurons; assay: Neuroprotection from growth factor deprivation; assay type: cell-based; conditions: starved 72 hrs +/−HGF 5 ng/ml; Dihexa 10^−10 M and 10^−8M
# Description: FIG. 39. […] Dissociated hippocampal neurons were starved for 72 hrs+/−HGF at sub-threshold concentrations 5 ng/ml and or Dihexa at 2 different concentrations 10^−10 M and 10^−8M. (**p<0.001,***p<0.0001; Mean+/−SEM).
# [5] = test system: Dissociated hippocampal neurons; assay: Neuroprotection from oxidative stress (H2O2); assay type: cell-based; conditions: 100 μM H2O2 24 hrs +/−HGF 5 ng/ml; Dihexa 10^−10 M and 10^−8M
# Description: FIG. 40. […] Dissociated hippocampal neurons were treated with 100 μM H2O2 for 24 hrs+/−HGF at sub-threshold concentrations 5 ng/ml and or Dihexa at 2 different concentrations 10^−10 M and 10^−8M. (*p<0.05,**p<0.01).
# [6] = test system: rats; assay: Morris water maze with i.c.v. Dihexa and HGF antagonist Hinge; assay type: in vivo, rat; conditions: scopolamine treated rats
# [7] = Phase I metabolism of Dihexa; assay type: in vitro ADME
# [8] = Blood stability studies; conditions: not shown
# [9] = test system: 6-OHDA lesioned rats; assay: Unilateral 6-OHDA substantia nigra lesion model; assay type: in vivo, rat
# Description: FIG. 41. Dihexa restores performance in the rope hang test. Two weeks after producing a unilateral lesion with 6-OHDA in the substantia nigra, rats were treated with either 0.5 mg/kg of Dihexa or equivalent volumes of the vehicle ip.
# FIG. 42A-C. Dihexa restored normal walking in the gait analysis test. Two weeks after producing a unilateral lesion with 6-OHDA in the substantia nigra, rats were treated with either 0.5 mg/kg of Dihexa or equivalent volumes of the vehicle ip. […] A, animal foot prints; B, left stride length; C, right stride length. Note that the dragging of the left hind leg observed in the untreated lesioned rats was absent from the treated group.
# FIG. 43. Dihexa restores tyrosine hyroxlase staining, which is indicative of the presence of dopaminiergic neurons in the substantia nigra (SN). Two weeks after the induction of an unilateral 6-OHDA lesion, rats were treated with either 0.5 mg/kg Dihexa or an equivalent volume of vehicle ip. for 34 days.
# [10] = Toxicity observation during Dihexa studies; assay type: in vivo; conditions: studies lasting as long as 96 days
# [11] = test system: hippocampal neurons; assay: Immunocytochemistry: correlation of spines with synaptic markers; assay type: cell-based, rat; conditions: HGF 10 ng/ml
# [12] = 0.5 mg/kg ip, started two weeks after lesion
Distribution into brain regions ([1]; thirty minutes after carotid infusion of 3H-Dihexa with 14C-Inulin),Brain level relative to blood ([1]; thirty minutes after delivery) [× blood],Average 3H/14C from blood ([1]; thirty minutes after infusion),t1/2 in rat serum [3] [h],Time stable in the blood [8],Molecule,Effect on HGF activation (phosphorylation) of c-Met [2],Protection of neurons from growth factor deprivation [4],Protection of neurons from oxidative stress [5],"Mean latency to find the pedestal, day one [6] [s]","Mean latency to find the pedestal, final day (day 8) [6] [s]","Mean latency to find the pedestal, fourth day [6] [s]",Phase I metabolism [7],Tyrosine hydroxylase staining in the substantia nigra ([9]; 0.5 mg/kg ip for 34 days / six weeks),"Gait analysis, stride length [9, 12]","Rope hang test performance [9, 12]",Recovery of SN TH staining ([9]; three months of Dihexa treatment) [%],Overt toxicity [10],Percent correlation of spines to Synapsin [11] [%],Mean number of spines per 50 μm dendrite length ([11]; 5 days)
concentrated in multiple brain regions,40,1687,5.5,over 5 hours,"CCCCCC(=O)N[C@@H](Cc1ccc(O)cc1)C(=O)N[C@H](C(=O)NCCCCCC(N)=O)[C@@H](C)CC [Dihexa, N-hexanoic-Tyr-Ile-(6)-aminohexanoic amide] (Hexanoyl-Tyr-Ile-[Ahx]-NH2)",dramatically augment the ability of HGF to activate c-Met; also recorded: work synergistically to activate c-Met; also recorded: enhances the activity of HGF shifting its concentration curve to the left,protects neurons from growth factor deprivation,protects neurons from oxidative stress,115.2,62.3,63.0,resistant to phase I metabolism; also recorded: undergoes little phase I metabolism,dramatic restoration of tyrosine hydroxylase (TH) staining; also recorded: completely restored the tyrosine hydroxylase staining in the SN,recovery of normal motor function; also recorded: completely restored the normal stride length,completely restores performance in the rope hang test; also recorded: completely restored the performance of the treated animals on the rope hang test,~100,no overt toxicity,,
,,,,,"HGF: Hepatocyte growth factor, recombinant, purchased from R&D Systems",,,,,,,,,,,,,98,33 spines per 50 μm dendrite length

# — patent US20140094413A1, “HEPATOCYTE GROWTH FACTOR (HGF) MIMICS AS THERAPEUTIC AGENTS” (WASHINGTON STATE UNIVERSITY, priority 2012, published 2014)
